# Data published in US20230092846A1, “COMBINATION FOR THE TREATMENT OF CANCER AND APPLICATION THEREOF” (EVERFRONT BIOTECH INC., priority 2020, published 2023).
# Like-named read-outs stand apart in the source and are kept apart here.
# Experiments:
# [1] = system: Panc02 cells; test: MTT cell viability analysis, single agents, Panc02; assay type: cell-based, mouse
# Description: (§1) In this example, the effects of the compound of the present invention and different anticancer medicaments on killing cancer cells were studied by MTT (Thiazolyl Blue tetrazolium bromide, 3-[4,5-dimethylthiahiazo-2-yl]-[…] bromide) cell viability analysis.
# (§2) Thereafter, each of the aforesaid cell lines was cultured with cell medium containing gemcitabine, cisplatin, 5-fluorouracil, irinotecan, oxaliplatin, paclitaxel, (Z)-n-butylidenephthalide, (E)-n-butylidenephthalide, 2-pentanolybenzoic acid, sodium 2-pentanoylbenzoate, and butylphthalide, for 24 hours, 48 hours and 72 hours, respectively.
# [2] = system: AsPC-1 cells; test: MTT cell viability analysis, single agents, AsPC-1; assay type: cell-based, human
# Description: as §1, §2
# [3] = system: PANC-1 cells; test: MTT cell viability analysis, single agents, PANC-1; assay type: cell-based, human
# Description: as §1, §2
# [4] = system: Mia-PaCa2 cells; test: MTT cell viability analysis, single agents, Mia-PaCa2; assay type: cell-based, human
# Description: as §1, §2
# [5] = system: HepG2 cell; test: MTT cell viability analysis, single agents, HepG2; assay type: cell-based; conditions: cultured 24, 48 and 72 hours (time of IC50 not given)
# Description: as §1
# (§3) Thereafter, each of the aforesaid cell lines were cultured with cell medium containing 5-fluorouracil, (Z)-n-butylidenephthalide, and 2-pentanolybenzoic acid for 24 hours, 48 hours and 72 hours.
# [6] = system: HT-29 cell; test: MTT cell viability analysis, single agents, HT-29; assay type: cell-based; conditions: cultured 24, 48 and 72 hours (time of IC50 not given)
# Description: as §1, §3
# [7] = system: A549 cell; test: MTT cell viability analysis, single agents, A549; assay type: cell-based; conditions: cultured 24, 48 and 72 hours (time of IC50 not given)
# Description: as §1, §3
# [8] = system: DBTRG-05MG cell; test: MTT cell viability analysis, single agents, DBTRG-05MG; assay type: cell-based; conditions: cultured 24, 48 and 72 hours (time of IC50 not given)
# Description: as §1, §3
# [9] = system: PD-1 protein; test: Western Blotting of pancreatic tumor tissue, PD-1; assay type: in vivo, C57BL/6J mouse; conditions: FIG. 6, group regimens
# Description: (§4) According to the requirements of Institutional Animal Care and Use Committee (IACUC) of Dong Hwa University, C57BL/6J mice were feed in the experimental animal center of Dong Hwa University until 8 to 10 weeks old. Then, the stably constructed Panc02 cells transfected by Luc-eGFP were in-situ injected into the mice pancreases (1×10^6 cells/0.02 ml/mouse). Thereafter, the tumor sizes of mice pancreases were analyzed through the animal imaging results, and the mice were equally divided into nine group depending on their tumor sizes and treated by the following conditions for three to four weeks:
# (§5) After accomplishing the observations of Examples 4-2 to 4-3, the mice in each group were sacrificed and the tissues of pancreatic tumor thereof were collected to extracting proteins. Then, the expressions of CD44 protein, CD44ICD protein, PD-1 protein, PD-L1 protein, p-Akt protein, and Akt protein in the protein sample of each group were detected by Western Blotting. Furthermore, the expression of GAPDH protein serves as an internal control.
# [10] = system: Panc02 cells pancreatic tumor; test: Orthotopic Panc02 pancreatic tumor, tumor size by T2-weighted MRI; assay type: in vivo, C57BL/6J mouse; conditions: fifteenth day, 14 days of treatment; group regimens; FIG. 3
# Description: as §4
# (1) “Control (Ctl.)” group (5 mice): untreated, only orally administering vehicle (containing none of the compound of the present invention and other anticancer medicaments) every day. […]
# The stably constructed Panc02 cells transfected by Luc-eGFP were in-situ injected into the mice of each group of Example 4-1, and after determining the growth of in-situ pancreatic tumor, the medicament treatments were conducted for 14 days (i.e., the fifteenth day). In this duration, the pancreatic tumors of mice in each group were analyzed and observed by T2-weighted MRI and taken pictures for records. The tumor (a portion circled by a dotted line) sizes of mice of each group in FIG. 2 were analyzed by amide software.
# [11] = system: Panc02 cells pancreatic tumor; test: Survival of mice with orthotopic Panc02 pancreatic cancer; assay type: in vivo, C57BL/6J mouse; conditions: for Fold (as compared to Ctl. group): survival
# Description: as §4
# (1) “Control (Ctl.)” group (5 mice): untreated, only orally administering vehicle (containing none of the compound of the present invention and other anticancer medicaments) every day.
# (2) “LD” group (5 mice): orally administering a low dose (12.5 mg/kg body weight) of (Z)-n-butylidenephthalide every day.
# (3) “HD” group (5 mice): orally administering a high dose (25 mg/kg body weight) of (Z)-n-butylidenephthalide every day.
# (4) “Gem” group (5 mice): intraperitoneally injecting 100 mg/kg body weight of gemcitabine (GEM) per three days.
# (5) “LD+Gem” group (5 mice): orally administering 12.5 mg/kg body weight of (Z)-n-butylidenephthalide every day, and intraperitoneally injecting 50 mg/kg body weight of gemcitabine (GEM) per three days.
# (6) “TS-1” group (5 mice): after orally administering 100 mg/kg body weight of TS-1 every day for five continuous days, stopping the oral administration of TS-1 for two days.
# According to the method of Example 4-1, the pancreatic cancer mice were established and the survivals of mice in each group were observed and recorded every day. The results are shown in Table 15 and FIG. 5A to FIG. 5D.
# [12] = system: PD-L1 protein; test: Western Blotting of pancreatic tumor tissue, PD-L1; assay type: in vivo, C57BL/6J mouse; conditions: FIG. 6, group regimens
# Description: as §4, §5
# [13] = system: CD44ICD protein; test: Western Blotting of treated Panc02 cells, CD44ICD; assay type: cell-based, mouse; conditions: FIG. 1
# Description: (§6) The Panc02 cells (pancreatic cancer cell line) were cultured with 37.5 and 75 μg/ml of (Z)-n-butylidenephthalide for 6 hours (a portion of cells were harvested after culturing for 3 hours), respectively. Thereafter, proteins of the cells were extracted, and the expressions of CD44 intracellular domain (CD44ICD) protein and PD-L1 protein in the cancer cells treated with (Z)-n-butylidenephthalide were measured by Western Blotting. Furthermore, the expression of GAPDH protein was measured as an internal control.
# [14] = system: PD-L1 protein; test: Western Blotting of treated Panc02 cells, PD-L1; assay type: cell-based, mouse; conditions: 37.5 and 75 μg/ml, 3 and 6 hours, FIG. 1
# Description: as §6
# [15] = MTT, cultured 24, 48 and 72 hours (time of IC50 not given)
# [16] = AsPC-1, MTT, cultured 24, 48 and 72 hours (time of IC50 not given)
# [17] = Mia-PaCa2, MTT, cultured 24, 48 and 72 hours (time of IC50 not given)
# [18] = Mus musculus, MTT, cultured 24, 48 and 72 hours (time of IC50 not given), read-out: IC50
# [19] = Homo sapiens, ASPC1, AsPC-1, MTT, cultured 24, 48 and 72 hours (time of IC50 not given), read-out: IC50
# [20] = Homo sapiens, MTT, cultured 24, 48 and 72 hours (time of IC50 not given), read-out: IC50
# [21] = Homo sapiens, MIA PaCa-2, Mia-PaCa2, MTT, cultured 24, 48 and 72 hours (time of IC50 not given), read-out: IC50
# [22] = Gem group: 100 mg/kg intraperitoneally per three days
# [23] = HD group: 25 mg/kg orally every day
# [24] = LD group: 12.5 mg/kg orally every day
molecule,measurement,setting,value
"O=C1[O][Pt]2([NH][C@@H]3CCCC[C@H]3[NH]2)[O]C1=O [oxaliplatin, Oxaliplatin]",IC50,[1]; [15],8.43 ± 0.83 µg/mL
same,IC50,[2]; [16],42.60 ± 7.61 µg/mL
same,IC50,[3]; [15],18.79 ± 1.35 µg/mL
same,IC50,[4]; [17],21.81 ± 1.60 µg/mL
"CCCCC1OC(=O)c2ccccc21 (centres unmarked) [butylphthalide, Butylphthalide]",IC50,[2]; [16],>300 µg/mL
same,IC50,[3]; [15],>200 µg/mL
same,IC50,[4]; [17],198.9 ± 7.69 µg/mL
"CCc1c2c(nc3ccc(OC(=O)N4CCC(N5CCCCC5)CC4)cc13)-c1cc3c(c(=O)n1C2)COC(=O)[C@]3(O)CC [irinotecan, Irinotecan]",IC50,[1]; [18],69.5 ± 1.01 µg/mL
same,IC50,[2]; [19],54.4 ± 2.13 µg/mL
same,IC50,[3]; [20],38.5 ± 1.08 µg/mL
same,IC50,[4]; [21],21.7 ± 0.82 µg/mL
2-pentanolybenzoic acid,IC50,[5],1141.5 ± 0.01 µg/mL
same,IC50,[1]; [15],769.9 ± 15.13 µg/mL
same,IC50,[6],443.8 ± 0.04 µg/mL
same,IC50,[2]; [16],490.2 ± 19.69 µg/mL
same,IC50,[3]; [15],980.5 ± 22.64 µg/mL
same,IC50,[7],795.5 ± 0.02 µg/mL
same,IC50,[8],392.8 ± 0.01 µg/mL
same,IC50,[4]; [17],693.5 ± 19.57 µg/mL
"CC(=O)O[C@H]1C(=O)[C@@]2(C)[C@H]([C@H](OC(=O)c3ccccc3)[C@]3(O)C[C@H](OC(=O)[C@H](O)[C@@H](NC(=O)c4ccccc4)c4ccccc4)C(C)=C1C3(C)C)[C@]1(OC(C)=O)CO[C@@H]1C[C@@H]2O [paclitaxel, Paclitaxel]",IC50,[1]; [18],0.0124 µg/mL
same,IC50,[2]; [19],0.058 µg/mL
same,IC50,[3]; [20],0.0196 µg/mL
same,IC50,[4]; [21],0.00458 µg/mL
"Nc1ccn([C@@H]2O[C@H](CO)[C@@H](O)C2(F)F)c(=O)n1 [gemcitabine, Gemcitabine]",IC50,[1]; [18],0.00377 µg/mL
same,expression of PD-1 protein in pancreatic tumor tissue,[9],more than that of the untreated “Control” group
same,IC50,[2]; [19],6.56 ± 0.82 µg/mL
same,IC50,[3]; [20],1.53 ± 0.3 µg/mL
same,tumor size (T2-weighted MRI),[10],bigger than that of untreated “Control” group
same,Average of overall survival,[11]; [22],31.7 ± 1.023 days
same,Median of overall survival,[11]; [22],30 days
same,Fold (as compared to Ctl. group),[11]; [22],1.8
same,expression of PD-L1 protein in pancreatic tumor tissue,[12],more than that of the untreated “Control” group
same,IC50,[4]; [21],0.85 ± 0.36 µg/mL
"CCCCC(=O)c1ccccc1C(=O)[O-].[Na+] [sodium 2-pentanoylbenzoate, Sodium 2-pentanoylbenzoate]",IC50,[1]; [18],750 ± 28.7 µg/mL
same,IC50,[2]; [19],624 ± 49.6 µg/mL
same,IC50,[3]; [20],687 ± 27.1 µg/mL
same,IC50,[4]; [21],469 ± 18.6 µg/mL
"O=c1[nH]cc(F)c(=O)[nH]1 [5-fluorouracil, reference compound]",IC50,"[5]; Homo sapiens, read-out: IC50",4.44 ± 0.25 µg/mL
same,IC50,[1]; [18],0.0673 µg/mL
same,IC50,"[6]; Homo sapiens, read-out: IC50",20.8 ± 0.91 µg/mL
same,IC50,[2]; [19],25.4 ± 3.91 µg/mL
same,IC50,[3]; [20],8.45 ± 0.35 µg/mL
same,IC50,"[7]; Homo sapiens, read-out: IC50",8.55 ± 0.22 µg/mL
same,IC50,"[8]; Homo sapiens, read-out: IC50",55.5 ± 6.1 µg/mL
same,IC50,[4]; [21],4.9 ± 0.27 µg/mL
CCC/C=C1\OC(=O)c2ccccc21 [(Z)-n-butylidenephthalide],expression of CD44ICD protein,"[13]; 37.5 and 75 μg/ml, 3 and 6 hours",decreased as the concentration of (Z)-n-butylidenephthalide was increased
same,expression of CD44ICD protein at 6 hours,[13]; 6 hours,completely inhibited
same,IC50,"[5]; Homo sapiens, read-out: IC50",81.1 ± 0.02 µg/mL
same,expression of PD-L1 protein,[14],decreased as the concentration of (Z)-n-butylidenephthalide was increased
same,IC50,[1]; Mus musculus,32.9 ± 2.33 µg/mL
same,IC50,"[6]; Homo sapiens, read-out: IC50",52.9 ± 0.01 µg/mL
same,IC50,"[2]; Homo sapiens, ASPC1",83.3 ± 2.56 µg/mL
same,IC50,[3]; Homo sapiens,41.2 ± 2.81 µg/mL
same,IC50,"[7]; Homo sapiens, read-out: IC50",63.6 ± 0.06 µg/mL
same,Average of overall survival,[11]; [23],27.2 ± 0.533 days
same,Median of overall survival,[11]; [23],27 days
same,Average of overall survival,[11]; [24],30.6 ± 2.205 days
same,Median of overall survival,[11]; [24],30 days
same,survival days compared to Control group and TS-1 group,[11]; [24],more than that of “Control” group
same,Fold (as compared to Ctl. group),[11]; [23],1.6
same,Fold (as compared to Ctl. group),[11]; [24],1.8
same,IC50,"[8]; Homo sapiens, read-out: IC50",133 µg/mL
same,IC50,"[4]; Homo sapiens, MIA PaCa-2",55.9 ± 1.35 µg/mL
CCC/C=C1/OC(=O)c2ccccc21 [(E)-n-butylidenephthalide],IC50,[1]; Mus musculus,514 ± 9.21 µg/mL
same,IC50,"[2]; Homo sapiens, ASPC1",131 ± 43.3 µg/mL
same,IC50,[3]; Homo sapiens,779 ± 26.9 µg/mL
same,IC50,"[4]; Homo sapiens, MIA PaCa-2",629 ± 16.5 µg/mL
"N.N.[Cl][Pt][Cl] [cisplatin, Cisplatin]",IC50,[1]; [15],53.36 ± 1.74 µg/mL
same,IC50,[2]; [16],21.56 ± 1.05 µg/mL
same,IC50,[3]; [15],35.87 ± 1.23 µg/mL
same,IC50,[4]; [17],32.86 ± 1.08 µg/mL
